≈ marks a conversion by molar mass, not a printed value. Calls of active or inactive are those of the source. No cut-off for these calls is given here.
What was measured:
[1] = system: Escherichia coli; assay: Antimicrobial activity against Escherichia coli ATCC 10536 by tube dilution method; assay type: functional
[2] = system: Escherichia coli; assay: Antimicrobial activity against Escherichia coli Baker 2 carrying APH(3')-I by tube dilution method; assay type: functional
[3] = system: Escherichia coli; assay: Antimicrobial activity against Escherichia coli LA290R55 carrying ANT(2'') by tube dilution method; assay type: functional
[4] = system: Escherichia coli; assay: Antimicrobial activity against Escherichia coli JR88 carrying AAC(3) by tube dilution method; assay type: functional
[5] = system: Escherichia coli; assay: Antimicrobial activity against Escherichia coli HL97/W677 carrying AAC(6') by tube dilution method; assay type: functional
[6] = system: Pseudomonas aeruginosa; assay: Antimicrobial activity against Pseudomonas aeruginosa St. M. 762 by tube dilution method; assay type: functional
[7] = system: Pseudomonas aeruginosa; assay: Antimicrobial activity against Pseudomonas aeruginosa St. M. 1395 by tube dilution method; assay type: functional
[8] = system: Pseudomonas aeruginosa; assay: Antimicrobial activity against Pseudomonas aeruginosa Stone 130 carrying AAC(3) by tube dilution method; assay type: functional
[9] = system: Pseudomonas aeruginosa; assay: Antimicrobial activity against Pseudomonas aeruginosa GN 315 carrying AAC(6') by tube dilution method; assay type: functional
[10] = system: Klebsiella pneumoniae; assay: Antimicrobial activity against Klebsiella pneumoniae Adler 17 carrying APH(3')-I by tube dilution method; assay type: functional
[11] = system: Klebsiella pneumoniae; assay: Antimicrobial activity against Klebsiella pneumoniae Georgetown 3694 carrying APH(2'') by tube dilution method; assay type: functional
[12] = system: Providencia; assay: Antimicrobial activity against Providencia 164 carrying AAC(2')-I by tube dilution method; assay type: functional
[13] = system: Proteus mirabilis; assay: Antimicrobial activity against Proteus mirabilis Harding by tube dilution method; assay type: functional
[14] = system: Providencia rettgeri; assay: Antimicrobial activity against Providencia rettgeri Membel by tube dilution method; assay type: functional
[15] = system: Providencia rettgeri; assay: Antimicrobial activity against Providencia rettgeri Anderson by tube dilution method; assay type: functional
[16] = system: Serratia marcescens; assay: Antimicrobial activity against Serratia marcescens Dalton by tube dilution method; assay type: functional
[17] = system: Salmonella typhimurium; assay: Antimicrobial activity against Salmonella typhimurium Gr. B. by tube dilution method; assay type: functional, Salmonella enterica subsp. enterica serovar Typhimurium; conditions: for MIC: Salmonella enterica
[18] = system: Bacillus subtilis; assay: Antimicrobial activity against Bacillus subtilis ATCC 6633 by tube dilution method; assay type: functional
[19] = system: Staphylococcus aureus; assay: Antimicrobial activity against Staphylococcus aureus 209 P by tube dilution method; assay type: functional
[20] = system: Staphylococcus aureus; assay: Antimicrobial activity against Staphylococcus aureus Wood by tube dilution method; assay type: functional
[21] = system: Staphylococcus aureus; assay: Antimicrobial activity against Staphylococcus aureus Ziegler by tube dilution method; assay type: functional
[22] = system: Staphylococcus aureus; assay: Antimicrobial activity against Staphylococcus aureus 59N by tube dilution method; assay type: functional
[23] = system: Streptococcus pyogenes; assay: Antimicrobial activity against Streptococcus pyogenes C by tube dilution method; assay type: functional
[24] = system: Streptococcus pyogenes; assay: Antimicrobial activity against Streptococcus pyogenes 27 by tube dilution method; assay type: functional
[25] = system: Streptococcus pyogenes; assay: Antimicrobial activity against Streptococcus pyogenes Group A Cruz by tube dilution method; assay type: functional
[26] = system: Streptococcus pyogenes; assay: Antimicrobial activity against Streptococcus pyogenes Alvarez by tube dilution method; assay type: functional
[27] = Acute toxicity in albino CF1 mouse; assay type: organism-based; conditions: in vivo
[28] = system: Trichomonas vaginalis; assay: Antiprotozoal activity against Trichomonas vaginalis after 48 hrs; assay type: functional
[29] = system: Entamoeba histolytica; assay: Antiprotozoal activity against Entamoeba histolytica JH; assay type: functional
[30] = system: Histomonas meleagridis; assay: Antiprotozoal activity against Histomonas meleagridis; assay type: functional

Q: For `CN[C@@H]1[C@@H](O)[C@@H](O[C@@H]2[C@@H](O)[C@H](O[C@H]3OC(CN)=CC[C@H]3N)[C@@H](N)C[C@H]2N)OC[C@]1(C)O` [SISOMICIN], which MIC [1] is on record?
A: Its MIC is 0.75 µg/mL (≈ 1.68 µM).

Q: What about the MIC [2] of the same compound?
A: The MIC was 0.75 µg/mL (≈ 1.68 µM).

Q: What about the MIC [3] of the same compound?
A: Its MIC is 7.5 µg/mL (≈ 16.8 µM).

Q: And the MIC [4]?
A: The MIC was 17.5 µg/mL (≈ 39.1 µM).

Q: And the MIC [5]?
A: The MIC was 7.5 µg/mL (≈ 16.8 µM).

Q: And the MIC [6]?
A: The MIC was 0.3 µg/mL (≈ 0.67 µM).

Q: What about the MIC [7] of the same compound?
A: Its MIC is 0.3 µg/mL (≈ 0.67 µM).

Q: What about the MIC [8] of the same compound?
A: Its MIC is 17.5 µg/mL (≈ 39.1 µM).

Q: And the MIC [9]?
A: The MIC was 7.5 µg/mL (≈ 16.8 µM).

Q: What about the MIC [10] of the same compound?
A: The MIC was 0.3 µg/mL (≈ 0.67 µM).

Q: What about the MIC [11] of the same compound?
A: The MIC was 7.5 µg/mL (≈ 16.8 µM).

Q: And the MIC [12]?
A: Its MIC is 3 µg/mL (≈ 6.7 µM).

Q: What about the MIC [13] of the same compound?
A: The MIC was 0.3 µg/mL (≈ 0.67 µM).

Q: And the MIC [14]?
A: Its MIC is 3 µg/mL (≈ 6.7 µM).

Q: What about the MIC [15] of the same compound?
A: Its MIC is > 25 µg/mL.

Q: And the MIC [16]?
A: Its MIC is 0.3 µg/mL (≈ 0.67 µM).

Q: What about the MIC [17] of the same compound?
A: The MIC was 0.3 µg/mL (≈ 0.67 µM).

Q: And the MIC [18]?
A: The MIC was < 0.01 µg/mL.

Q: What about the MIC [19] of the same compound?
A: The MIC was 0.03 µg/mL (≈ 0.067 µM).

Q: What about the MIC [20] of the same compound?
A: Its MIC is 0.03 µg/mL (≈ 0.067 µM).

Q: What about the MIC [21] of the same compound?
A: Its MIC is 0.03 µg/mL (≈ 0.067 µM).

Q: And the MIC [22]?
A: The MIC was 0.03 µg/mL (≈ 0.067 µM).

Q: And the MIC [23]?
A: The MIC was 17.5 µg/mL (≈ 39.1 µM).

Q: And the MIC [24]?
A: Its MIC is 3 µg/mL (≈ 6.7 µM).

Q: And the MIC [25]?
A: The MIC was 7.5 µg/mL (≈ 16.8 µM).

Q: What about the MIC [26] of the same compound?
A: The MIC was 7.5 µg/mL (≈ 16.8 µM).

Q: What about the LD50 [27] of the same compound?
A: Its LD50 is 34 mg/kg.

Q: What about the Activity [28] of the same compound?
A: The Activity was “Active”.

Q: What about the Activity [29] of the same compound?
A: The Activity was “Active”.

Q: What about the Activity [30] of the same compound?
A: The Activity was “Active”.

Q: With `CN[C@@H]1[C@@H](O)[C@@H](O[C@@H]2[C@@H](O)[C@H](O[C@H]3OC(CNC(C)(C)C)=CC[C@H]3N)[C@@H](N)C[C@H]2N)OC[C@]1(C)O` as the compound, how does the MIC [1] read?
A: Its MIC is 0.75 µg/mL (≈ 1.49 µM).

Q: What about the MIC [2] of the same compound?
A: Its MIC is 7.5 µg/mL (≈ 14.9 µM).

Q: What about the MIC [3] of the same compound?
A: The MIC was 17.5 µg/mL (≈ 34.7 µM).

Q: What about the MIC [4] of the same compound?
A: Its MIC is > 25 µg/mL.

Q: What about the MIC [5] of the same compound?
A: Its MIC is 3 µg/mL (≈ 5.96 µM).

Q: What about the MIC [6] of the same compound?
A: Its MIC is 7.5 µg/mL (≈ 14.9 µM).

Q: And the MIC [7]?
A: The MIC was 17.5 µg/mL (≈ 34.7 µM).

Q: What about the MIC [8] of the same compound?
A: The MIC was > 25 µg/mL.

Q: And the MIC [9]?
A: Its MIC is 7.5 µg/mL (≈ 14.9 µM).

Q: What about the MIC [10] of the same compound?
A: The MIC was 7.5 µg/mL (≈ 14.9 µM).

Q: What about the MIC [11] of the same compound?
A: The MIC was > 25 µg/mL.

Q: And the MIC [12]?
A: Its MIC is 17.5 µg/mL (≈ 34.7 µM).

Q: And the MIC [13]?
A: The MIC was 3 µg/mL (≈ 5.96 µM).

Q: What about the MIC [14] of the same compound?
A: Its MIC is 3 µg/mL (≈ 5.96 µM).

Q: And the MIC [15]?
A: The MIC was > 25 µg/mL.

Q: And the MIC [16]?
A: Its MIC is 7.5 µg/mL (≈ 14.9 µM).

Q: What about the MIC [17] of the same compound?
A: Its MIC is 3 µg/mL (≈ 5.96 µM).

Q: And the MIC [18]?
A: The MIC was < 0.01 µg/mL.

Q: And the MIC [19]?
A: The MIC was 0.03 µg/mL (≈ 0.0596 µM).

Q: What about the MIC [20] of the same compound?
A: Its MIC is 0.03 µg/mL (≈ 0.0596 µM).

Q: And the MIC [21]?
A: The MIC was 0.03 µg/mL (≈ 0.0596 µM).

Q: And the MIC [22]?
A: Its MIC is 0.75 µg/mL (≈ 1.49 µM).

Q: What about the MIC [23] of the same compound?
A: Its MIC is 17.5 µg/mL (≈ 34.7 µM).

Q: And the MIC [24]?
A: The MIC was 7.5 µg/mL (≈ 14.9 µM).

Q: What about the MIC [25] of the same compound?
A: The MIC was 3 µg/mL (≈ 5.96 µM).

Q: What about the MIC [26] of the same compound?
A: Its MIC is > 25 µg/mL.

Q: And the LD50 [27]?
A: Its LD50 is 90 mg/kg.

Q: What about the Activity [28] of the same compound?
A: Its Activity is “inactive”.

Q: What about the Activity [29] of the same compound?
A: Its Activity is “inactive”.

Q: What about the Activity [30] of the same compound?
A: The Activity was “inactive”.

Q: What does the source list for `CN[C@@H]1[C@@H](O)[C@@H](O[C@@H]2[C@@H](O)[C@H](O[C@H]3OC(/C=N\O)=CC[C@H]3N)[C@@H](N)C[C@H]2N)OC[C@]1(C)O`?
A: Activity [1]: inactive; Activity [2]: inactive; Activity [3]: inactive; Activity [4]: inactive; Activity [5]: inactive; Activity [6]: inactive; Activity [7]: inactive; Activity [8]: inactive; Activity [9]: inactive; Activity [10]: inactive; Activity [11]: inactive; Activity [12]: inactive; Activity [13]: inactive; Activity [14]: inactive; Activity [15]: inactive; Activity [16]: inactive; Activity ([17]; Salmonella enterica subsp. enterica serovar Typhimurium): inactive; Activity [18]: inactive; Activity [19]: inactive; Activity [20]: inactive; Activity [21]: inactive; Activity [22]: inactive; Activity [23]: inactive; Activity [24]: inactive; Activity [25]: inactive; Activity [26]: inactive; Activity [28]: inactive; Activity [29]: inactive; Activity [30]: inactive
